Test results from patent publication US12673921B2, “Substituted fluorine-containing imidazole salt compound, preparation method therefor, pharmaceutical composition thereof and use thereof” (XIAMEN VIVOHEALTHS TECHNOLOGY CO., LTD., priority 2019, dated 2026).

Tested on: AMPK
Test: AMPK activity assay at cell level (western blot of p-AMPKα and p-ACC in MEFs)
Format: cell-based, mouse
Settings: MEF cells, compound 10 nM, 2 h; multiple of the ratio relative to positive control AICAR (3 mM); band brightness by Image J
Experimental: The ability of compounds to activate AMPK in mouse embryonic fibroblasts (MEFs) was determined, which could be specifically carried out by detecting the phosphorylation level (p-AMPKα) of threonine at the 172nd position of AMPK and the phosphorylation level (p-ACC) of serine at the 79th position of the susbtrate ACC1/ACC2 of AMPK (FIG. 1 and Table I) by western blot.
The specific method was as follows: • (1) MEFs with loxP insertion sequences or of wild-type were plated in a 6-well plate and cultured in DMEM containing 10% serum. If a gene needed to be knocked out at this time, when the density of the corresponding MEFs with loxP insertion sequences reached about 30%, an adenovirus capable of expressing cre should be added to the culture well followed by further culture for more than 24 h; • (2) When the cell density was close to 90%, the cells were provided with fresh DMEM, at the same time, a compound (final concentration 10 nM) was added to the cells, followed by culture for 2 h, with an equal volume of DMSO as the negative control, and the cells treated with the addition of AICAR (3 mM) as the positive control; • (3) After sucking up the culture solution, the cells were lysed with 200 μL of a cell lysate (its formulation was given below), then the cells were scraped from the culture dish, ultrasonicated, and subjected to low temperature centrifugation at 20000 g for 10 min; • (4) The supernatant and an equal volume of 2*SDS solution (its formulation was given below) were mixed, and subjected to SDS-PAGE in a concentration of 8%, then the protein was transferred to PVDF membrane; each PVDF membrane was blocked with 25 mL of skim milk for 1 h, and then rinsed with TBST buffer (its formulation was given below) 3 times for 10 min each time; • (5) AMPKα subunit primary antibody (Cell Signaling Technology, #2532), primary antibody of phosphothreonine at the 172nd position of AMPK (Cell Signaling Technology, #2535), ACC primary antibody (Cell Signaling Technology, #3662), or primary antibody of phosphoserine at the 79th position of ACC (Cell Signaling Technology, #3661) was diluted in a ratio of 1:1000 with a primary antibody dilution (its formulation was given below), reacted with the PVDF membrane at room temperature for 12 h, and then rinsed 3 times with TBST buffer; • (6) A 1:1000 dilution of HRP-conjugated goat anti-rabbit secondary antibody (Jackson ImmunoResearch, 111-035-003) was added, reacted at room temperature for 1 h, and then rinsed 3 times with TBST buffer; • (7) The PVDF membrane was dried, reacted in an ECL mixture (WesternBright ECL HRP substrate, Advansta) and subjected to exposure with medical X-ray, developed, finally rinsed, dried, and then scanned to obtain data related to AMPK activation.
The formulations of reagents used were: • Cell lysate: 20 mM Tris-base, pH 7.5, 150 mM NaCl, 1 mM EDTA, 1 mM EGTA, 2.5 mM Sodium pyrophosphate, 1 mM β-glycerolphosphate, 1% Triton X-100 (v/v); • 2*SDS solution: 20% Glycerol (v/v), 4% SDS (m/v), 10% β-mecaptoethanol (v/v), 0.01% Bromophenol blue (m/v); • TBST buffer: 4.84% Tris-base (m/v), 8% NaCl (m/v), 0.1% Tween-20 (v/v); • Primary antibody dilution: TBST buffer containing 5% BSA (v/v).

| SMILES | Degree of AMPK activation, p-ACC/ACC | Degree of AMPK activation, p-AMPKα/AMPK |
| --- | --- | --- |
| Br.Cc1n(CCCCCCCCCCCCCCCCF)cc[n+]1Cc1c(Cl)cccc1Cl [IA-2] | 0.73 | 1.00 |
| Cc1n(CCCCCCCCCCCCCCCCF)cc[n+]1Cc1c(Cl)cccc1Cl.[I-] [IA-3] | 0.83 | 0.69 |
| FC(F)(F)C(F)(F)C(F)(F)CCCCCCCCCCCn1cc[n+](Cc2c(Cl)cccc2Cl)c1.[Cl-] [IB-1] | 0.71 | 0.99 |
| Fc1cccc(Cl)c1C[n+]1ccn(CCCCCCCCCCCC(F)(F)C(F)(F)C(F)(F)F)c1.[Cl-] [IB-2] | 0.82 | 1.45 |
| COc1ccc(F)cc1C[n+]1ccn(CCCCCCCCCCCC(F)(F)C(F)(F)C(F)(F)F)c1.[Br-] [IB-3] | 0.64 | 1.70 |
| Cc1n(CCCCCCCCCCCC(F)(F)C(F)(F)C(F)(F)F)cc[n+]1Cc1c(F)cccc1Cl.[Cl-] [IB-5] | 0.70 | 1.85 |
| CC(C)c1n(CCCCCCCCCCCC(F)(F)C(F)(F)C(F)(F)F)cc[n+]1Cc1c(Cl)cccc1Cl.[Cl-] [IB-7] | 0.87 | 1.93 |
| CC(C)c1n(CCCCCCCCCCCC(F)(F)C(F)(F)C(F)(F)F)cc[n+]1Cc1c(F)cccc1Cl.[Cl-] [IB-8] | 0.90 | 1.23 |
| COc1ccc(F)cc1C[n+]1ccn(CCCCCCCCCCCC(F)(F)C(F)(F)C(F)(F)F)c1C(C)C.[Br-] [IB-9] | 0.27 | 1.07 |
| Cl.FC(F)(F)C(F)(F)C(F)(F)CCCCCCCCCCCn1cc[n+](Cc2c(Cl)cccc2Cl)c1C1CC1 [IB-10] | 0.35 | 1.94 |
| Fc1cccc(Cl)c1C[n+]1ccn(CCCCCCCCCCCC(F)(F)C(F)(F)C(F)(F)F)c1C1CC1.[Cl-] [IB-11] | 0.41 | 1.11 |
| Br.COc1ccc(F)cc1C[n+]1ccn(CCCCCCCCCCCC(F)(F)C(F)(F)C(F)(F)F)c1C1CC1 [IB-12] | 0.50 | 1.18 |
| Cl.FC(F)(F)C(F)(F)C(F)(F)C(F)(F)CCCCCCCCCCCn1cc[n+](Cc2c(Cl)cccc2Cl)c1 [IB-13] | 0.57 | 1.31 |
| Cl.Fc1cccc(Cl)c1C[n+]1ccn(CCCCCCCCCCCC(F)(F)C(F)(F)C(F)(F)C(F)(F)F)c1 [IB-14] | 0.50 | 1.57 |
| Cc1n(CCCCCCCCCCCC(F)(F)C(F)(F)C(F)(F)C(F)(F)F)cc[n+]1Cc1c(F)cccc1Cl.[Cl-] [IB-17] | 0.72 | 1.42 |
| Cc1n(CCCCCCCCCCCC(F)(F)C(F)(F)C(F)(F)C(F)(F)F)cc[n+]1Cc1c(Cl)cccc1Cl.[Br-] [IB-18] | 0.65 | 1.45 |

| SMILES | Degree of AMPK activation, p-ACC/ACC | Degree of AMPK activation, p-AMPKα/AMPK |
| --- | --- | --- |
| COc1ccc(F)cc1C[n+]1ccn(CCCCCCCCCCCC(F)(F)C(F)(F)C(F)(F)C(F)(F)F)c1C.[Br-] [IB-20] | 0.82 | 1.22 |
| Cc1n(CCCCCCCCCCCC(F)(F)C(F)(F)C(F)(F)C(F)(F)F)cc[n+]1Cc1c(Cl)cccc1Cl.[I-] [IB-21] | 1.73 | 0.35 |
| Cc1n(CCCCCCCCCCCC(F)(F)C(F)(F)C(F)(F)C(F)(F)F)cc[n+]1Cc1c(F)cccc1Cl.[I-] [IB-22] | 1.08 | 0.44 |
| COc1ccc(F)cc1C[n+]1ccn(CCCCCCCCCCCC(F)(F)C(F)(F)C(F)(F)C(F)(F)F)c1C.[I-] [IB-23] | 1.50 | 0.49 |
| CC(C)c1n(CCCCCCCCCCCC(F)(F)C(F)(F)C(F)(F)C(F)(F)F)cc[n+]1Cc1c(Cl)cccc1Cl.[Cl-] [IB-24] | 1.60 | 0.64 |
| CC(C)c1n(CCCCCCCCCCCC(F)(F)C(F)(F)C(F)(F)C(F)(F)F)cc[n+]1Cc1c(F)cccc1Cl.[Cl-] [IB-25] | 1.10 | 0.58 |
| COc1ccc(F)cc1C[n+]1ccn(CCCCCCCCCCCC(F)(F)C(F)(F)C(F)(F)C(F)(F)F)c1C(C)C.[Br-] [IB-26] | 1.04 | 0.94 |
| FC(F)(F)C(F)(F)C(F)(F)C(F)(F)CCCCCCCCCCCn1cc[n+](Cc2c(Cl)cccc2Cl)c1C1CC1.[Cl-] [IB-27] | 1.06 | 0.95 |
| COc1ccc(F)cc1C[n+]1ccn(CCCCCCCCCCCC(F)(F)C(F)(F)C(F)(F)C(F)(F)F)c1C1CC1.[Br-] [IB-29] | 0.81 | 0.76 |
| Cc1n(CCCCCCCCCCCC(F)(F)C(F)(F)C(F)(F)C(F)(F)C(F)(F)F)cc[n+]1Cc1c(Cl)cccc1Cl.[Br-] [IB-35] | 1.15 | 1.02 |
| Cc1n(CCCCCCCCCCCC(F)(F)C(F)(F)C(F)(F)C(F)(F)C(F)(F)F)cc[n+]1Cc1c(F)cccc1Cl.[I-] [IB-39] | 1.51 | 1.50 |
| COc1ccc(F)cc1C[n+]1ccn(CCCCCCCCCCCC(F)(F)C(F)(F)C(F)(F)C(F)(F)C(F)(F)F)c1C.[I-] [IB-40] | 1.65 | 1.06 |
| CC(C)c1n(CCCCCCCCCCCC(F)(F)C(F)(F)C(F)(F)C(F)(F)C(F)(F)F)cc[n+]1Cc1c(F)cccc1Cl.[Cl-] [IB-42] | 1.50 | 1.03 |
| Fc1cccc(Cl)c1C[n+]1ccn(CCCCCCCCCCCC(F)(F)C(F)(F)C(F)(F)C(F)(F)C(F)(F)F)c1C1CC1.[Cl-] [IB-45] | 2.22 | 0.54 |
| COc1ccc(F)cc1C[n+]1ccn(CCCCCCCCCCCC(F)(F)C(F)(F)C(F)(F)C(F)(F)C(F)(F)F)c1C1CC1.[Br-] [IB-46] | 1.73 | 0.57 |
| COc1ccc(F)cc1C[n+]1ccn(CCCCCCCCCCCC(F)(F)C(F)(F)C(F)(F)C(F)(F)C(F)(F)C(F)(F)F)c1C.[Br-] [IB-52] | 0.98 | 0.83 |
